The text below walks through data of patent US6432879B1, “Substituted phenyl uracils” (Bayer Aktiengesellschaft, priority 1997, dated 2002).

The test system of series [1] is weeds. Kind of series: Pre-emergence test, action against weeds. The class given is in vivo. The settings on record: soil sprayed about 24 hours after sowing, rated after three weeks vs untreated control. As to the method: (§1) Solvent: 5 parts by weight of acetone
(§2) Emulsifier: 1 part by weight of alkylaryl polyglycol ether
To produce a suitable preparation of active compounds, 1 part by weight of active compound is mixed with the stated amount of solvent, the stated amount of emulsifier is added and the concentrate is diluted with water to the desired concentration.
Seeds of the test plants are sown in normal soil. After about 24 hours, the soil is sprayed with the preparation of active compounds such that the particular amounts of active compound desired are applied per unit area. The concentration of the spray liquor is chosen so that the particular amounts of active compound desired are applied in 1000 l of water/ha.
(§3) After three weeks, the degree of damage to the plants is rated in % damage in comparison to the development of the untreated control.
(§4) 0%=no effect (like untreated control)

Series [2] relates to weeds. Kind of series: Post-emergence test, activity against weeds. The class given is in vivo. The settings on record: test plants of 5-15 cm sprayed, rated after three weeks vs untreated control. As to the method:
as §1, §2
To produce a suitable preparation of active compound, 1 part by weight of active compound is mixed with the stated amount of solvent, the stated amount of emulsifier is added and the concentrate is diluted with water to the desired concentration.
Test plants of a height of 5-15 cm are sprayed with the preparation of active compound such that the particular amounts of active compound desired are applied per unit area. The concentration of the spray liquor is chosen so that the particular amounts of active compound desired are applied in 1000 l of water/ha.
as §3, §4

The structures appear in SMILES notation.

The melting point is the temperature of the solid-liquid transition. `O=c1cc(C(F)(F)F)[nH]c(=O)n1-c1ccc(OCc2ccc(Cl)nc2)cc1[N+](=O)[O-]` [Example 2, 1-[4-(2-chloro-pyridin-5-yl-methoxy)-2-nitrophenyl]-4-trifluoromethyl-3,6-dihydro-2,6-dioxo-1(2H)-pyrimidine] returned a melting point of 209 °C.

Regarding `O=c1cc(C(F)(F)F)[nH]c(=O)n1-c1ccc(OCc2ccc(Cl)cc2)cc1[N+](=O)[O-]` [Example 1, 1-[4-(4-chloro-phenylmethoxy)-2nitrophenyl]-4-trifluoromethyl-3,6-dihydro-2,6-dioxo-1(2H)-pyrimidin], the melting point amounted to 237 °C.

For the compound `Cn1c(C(F)(F)F)cc(=O)n(-c2ccc(OCc3ccc(Cl)cc3)cc2[N+](=O)[O-])c1=O` [Example 3, 1-[4-(4-chloro-phenylmethoxy)-2-nitrophenyl]-3-methyl-4-trifluoromethyl-3,6-dihydro-2,6-dioxo-1(2H)-pyrimidine], the melting point was 159 °C. For the same compound, the “action against weeds (degree of damage to the plants)” value (shortened to “action against weeds”) in the series on weeds [1] was “strong action”.

Consider `CC(=O)Nc1cc(OCc2ccc(Cl)cc2)ccc1-n1c(=O)cc(C(F)(F)F)n(C)c1=O` [Example 7, 1-[2-acetylamino-4-(4-chloro-phenylmethoxy)-phenyl]-3-methyl-4-trifluoromethyl-3,6-dihydro-2,6-dioxo-1(2H)-pyrimidine], for which the melting point amounted to 230 °C. Besides, the “action against weeds” value in the series with weeds [1] is reported as “strong action”. For the same compound, the “activity against weeds (degree of damage to the plants)” value in the series with weeds [2] was “strong activity”.

`Cn1c(C(F)(F)F)cc(=O)n(-c2ccc(OCc3ccc(Cl)cc3)cc2N)c1=O` [Example 5, 1-[2-amino-4-(4-chloro-phenylmethoxy)-phenyl]-3-methyl-4-trifluoromethyl-3,6-dihydro-2,6-dioxo-1(2H)-pyrimidine] had a melting point of 166 °C. Besides, in the series on weeds [1], the “action against weeds” value is “strong action”. In addition, the “activity against weeds (degree of damage to the plants)” value in the series with weeds [2] is recorded as “strong activity”.

As for `Nn1c(C(F)(F)F)cc(=O)n(-c2ccc(OCc3ccc(Cl)nc3)cc2[N+](=O)[O-])c1=O` [Example 4, 3-amino-1-[4-(2-chloro-pyridin-5-yl-methoxy)-2-nitro-phenyl]-4-trifluoromethyl-3,6-dihydro-2,6-dioxo-1(2H)-pyrimidine], the melting point worked out at 193 °C.
